The text below walks through data of publication PMC7126999 (Bioorganic & Medicinal Chemistry, 2015).

In this test the test system is Punta Toro virus. Nature of the test: microbe, parasite or virus in culture. Type of test: cell-based. As to conditions: Vero, read-out: EC50 Punta Toro virus.

Each structure is given as a SMILES string.

Take `NC(=O)c1ncn([C@@H]2O[C@H](CO)[C@@H](O)[C@H]2O)n1` [Ribavirin, ribavirin]: the half-maximal effective concentration (EC50) (commonly the concentration at which the effect is half-maximal) is 250 µM.
